# Data as given in patent US20240316038A1, “APOL1 INHIBITORS AND METHODS OF USE” (Maze Therapeutics, Inc., priority 2021, published 2024).
# Experiments:
# APOL1 G2 [1] = molecular target: T1, APOL1 G2 (Homo sapiens, UniProt O14791, DEL388-389); test: Rescue of HEK293 cell death caused by overexpression of APOL1 (CellTiter-Glo luminescence), HEK293/T-REx APOL1 G2/clone #2; assay type: cell-based; conditions: reversal of cell death caused by overexpression of APOL1; geometric mean of at least 2 assay runs, † = single assay run (technical duplicate)
# T1 construct: expressed in transfected cells; host or cells: HEK293 T-REx clonal lines: HEK T-REx/GCaMP6f/APOL1 G2 K6.3 in A1, HEK293/T-REx APOL1 G2/clone #2 in A2
# T1 sequence (O14791 with tags, fused parts or gaps DEL388-389): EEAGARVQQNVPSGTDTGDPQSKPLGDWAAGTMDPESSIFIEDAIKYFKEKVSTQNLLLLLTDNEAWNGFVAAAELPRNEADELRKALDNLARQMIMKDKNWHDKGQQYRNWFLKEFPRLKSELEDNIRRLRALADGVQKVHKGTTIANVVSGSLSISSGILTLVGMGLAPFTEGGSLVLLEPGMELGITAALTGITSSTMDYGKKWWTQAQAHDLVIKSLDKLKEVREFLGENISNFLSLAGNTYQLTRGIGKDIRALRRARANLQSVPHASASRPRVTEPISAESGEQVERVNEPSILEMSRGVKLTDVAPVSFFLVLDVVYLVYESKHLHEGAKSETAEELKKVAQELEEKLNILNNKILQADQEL
# Method in brief: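 Rescue EC50s come from four-parameter logistic fits, geometric mean of at least 2 runs on separate days, each in duplicate. Readout: CellTiter-Glo luminescence after 17 h at 37 °C of 5,000 HEK293/T-REx APOL1 G2 clone #2 cells/well, with 6 ng/mL doxycycline to induce APOL1 and 3-fold serial compound dilutions in 0.5% DMSO.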
# APOL1 G2 [2] = molecular target: T1, APOL1 G2; test: APOL1 calcium transport inhibition assay (GCaMP6f calcium influx, FLIPR) in HEK T-REx/GCaMP6f/APOL1 G2 K6.3 cells; assay type: cell-based; conditions: inhibition of APOL1-mediated calcium influx; geometric mean of at least 2 assay runs, † = single assay run (technical duplicate)
# Method in brief: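 HEK293 cells stably expressing GCaMP6f, APOL1 G2 induced 6 h with doxycycline (20 ng/mL added), then washed into Ca2+-free Tyrode's buffer pH 7.4. Compounds (8-point dose response) preincubated 10 min at room temperature, then Ca2+ injected to 5 mM final and influx read on FLIPR. AC50 reported as geometric mean of runs.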
AC50 (APOL1 G2 [2]) [nM],Structure (SMILES),EC50 (APOL1 G2 [1]) [nM]
314,"C[C@@H]1CN(CCc2cc(Cl)cc(C#N)c2)C[C@H]1COc1ccc(S(=O)(=O)CCCS(C)(=O)=O)cc1 [Compound 167, 3-chloro-5-{2-[(3S,4S)-3-{[4-(3-methanesulfonylpro-panesulfonyl)phe-noxy]methyl}-4-methylpyrrolidin-1-yl]ethyl}benzonitrile]",67.2
756,"C[C@@H]1C[C@H](COc2ccc(S(C)(=O)=O)cc2)CN1CC(O)c1cc(Cl)cc(C#N)c1 (single isomer, unassigned) [Compound 115, 3-chloro-5-[(1R or 1S)-1-hydroxy-2-[(2R,4S)-4-[(4-methanesulfonylphenoxy)methyl]-2-methylpyrrolidin-1-yl]ethyl] benzonitrile]",44.7
469,"COC(CN1CCC[C@@H](COc2ccc(S(C)(=O)=O)cc2)C1)c1cccc(Cl)c1 (single isomer, unassigned) [Compound 25, (R)-1-((R)-2-(3-chlorophenyl)-2-methoxyethyl)-3-((4-(methylsulfonyl)phenoxy)methyl)piperidine or (R)-1-((S)-2-(3-chlorophenyl)-2-methoxyethyl)-3-((4-(methylsulfonyl)phenoxy)methyl)piperidine]",1010
557,"CN(c1ccc(OC[C@@H](O)CNCCc2cccc(Cl)c2)cc1)S(C)(=O)=O [Compound 86, (S)-N-(4-(3-((3-chlorophenethyl)a-mino)-2-hydroxypropoxy)phe-nyl)-N-methylmethanesulfon-amide]",> 4110
2860,"C[C@@H]1CN(CCc2cccc(Cl)c2)C[C@H]1COc1ccc(S(=O)(=O)CCCS(C)(=O)=O)cc1 (single isomer, unassigned) [Compound 177, (3S,4S or 3R,4R)-1-[2-(3-chlorophenyl)eth-yl]-3-{[4-(3-methanesulfonylpro-panesulfonyl)phe-noxy]methyl}-4-methylpyrrolidine]",1830
510,C[C@@H]1C[C@H](COc2ccc(S(C)(=O)=O)cc2)CN1CCc1cc(C#N)cc(C#N)c1 [Compound 132],43.7
90.2,"C[C@@H]1CN(CCc2cccc(Cl)c2)C[C@H]1COc1ccc(N(C)S(C)(=O)=O)cc1 (single isomer, unassigned) [Compound 46, N-(4-(((3S,4S) or (3R,4R)-1-(3-chlorophenethyl)-4-methylpyrrolidin-3-yl)methoxy)phenyl)-N-methylmethanesulfonamide]",21
1020,"CS(=O)(=O)c1ccc(OCC2CN(CCc3cccc(Cl)c3)CCC2O)cc1 (single isomer, unassigned) [Compound 31, (3R,4R) or (3S,4S) or (3R,4S) or (3S,4R)-1-(3-chlorophen-ethyl)-3-((4-(methylsulf-onyl)phenoxy)methyl) piperidin-4-ol]",> 7890
1760,"CS(=O)(=O)c1ccc(OC[C@@H]2CCCN(CC(O)c3cccc(Cl)c3)C2)cc1 (stereo partly drawn) [Compound 20, 1-(3-chlorophenyl)-2-((R)-3-((4-(methylsulfonyl)phenoxy)methyl)piperidin-1-yl)ethanol]",1360
6980,"CN=S(C)(=O)c1ccc(OC[C@@H]2CN(CCc3cc(Cl)cc(C#N)c3)CCN2)cc1 (stereo partly drawn) [Compound 186, 3-chloro-5-{2-[(3S)-3-({4-[methyl(methyl-imino)oxo-λ^6-sulfanyl]pheno-xy}methyl)pipera-zin-1-yl]ethyl}benzo-nitrile]",631
> 12500,"CC1CC(COc2ccc(S(C)(=O)=O)cc2)CN1CCc1cccc(C#N)c1 (single isomer, unassigned) [Compound 135, rac-cis or trans-3-{2-[4-[(4-methanesulfon-ylphenoxy)meth-yl]-2-methyl-pyrrolidin-1-yl]-ethyl}benzo-nitrile]",5730
322,"O=S(=O)(c1ccc(OC[C@@H]2CN(CCc3cccc(Cl)c3)CCN2)cc1)C1CNC1 [Compound 185, (3S)-3-{[4-(azetidine-3-sulfonyl)phenoxy]methyl}-1-[2-(3-chlorophenyl)ethyl]piperazine]",239
